Experimental data taken from paper PMC8213057, “Targeting ALK2: An Open Science Approach to Developing Therapeutics for the Treatment of Diffuse Intrinsic Pontine Glioma” (Journal of Medicinal Chemistry, 2020).

Tests used:
CLK2 = CLK2 (Homo sapiens, UniProt P49760); conditions: 1 μM; Run 1, Run 2
FGR = FGR (Homo sapiens, UniProt P09769); conditions: 1 μM; Run 1, Run 2
KSR2 = molecular target: T1, KSR2 (Homo sapiens, UniProt Q6VAB6); conditions: 1 μM; Run 1, Run 2
T1 sequence (Q6VAB6 1-950): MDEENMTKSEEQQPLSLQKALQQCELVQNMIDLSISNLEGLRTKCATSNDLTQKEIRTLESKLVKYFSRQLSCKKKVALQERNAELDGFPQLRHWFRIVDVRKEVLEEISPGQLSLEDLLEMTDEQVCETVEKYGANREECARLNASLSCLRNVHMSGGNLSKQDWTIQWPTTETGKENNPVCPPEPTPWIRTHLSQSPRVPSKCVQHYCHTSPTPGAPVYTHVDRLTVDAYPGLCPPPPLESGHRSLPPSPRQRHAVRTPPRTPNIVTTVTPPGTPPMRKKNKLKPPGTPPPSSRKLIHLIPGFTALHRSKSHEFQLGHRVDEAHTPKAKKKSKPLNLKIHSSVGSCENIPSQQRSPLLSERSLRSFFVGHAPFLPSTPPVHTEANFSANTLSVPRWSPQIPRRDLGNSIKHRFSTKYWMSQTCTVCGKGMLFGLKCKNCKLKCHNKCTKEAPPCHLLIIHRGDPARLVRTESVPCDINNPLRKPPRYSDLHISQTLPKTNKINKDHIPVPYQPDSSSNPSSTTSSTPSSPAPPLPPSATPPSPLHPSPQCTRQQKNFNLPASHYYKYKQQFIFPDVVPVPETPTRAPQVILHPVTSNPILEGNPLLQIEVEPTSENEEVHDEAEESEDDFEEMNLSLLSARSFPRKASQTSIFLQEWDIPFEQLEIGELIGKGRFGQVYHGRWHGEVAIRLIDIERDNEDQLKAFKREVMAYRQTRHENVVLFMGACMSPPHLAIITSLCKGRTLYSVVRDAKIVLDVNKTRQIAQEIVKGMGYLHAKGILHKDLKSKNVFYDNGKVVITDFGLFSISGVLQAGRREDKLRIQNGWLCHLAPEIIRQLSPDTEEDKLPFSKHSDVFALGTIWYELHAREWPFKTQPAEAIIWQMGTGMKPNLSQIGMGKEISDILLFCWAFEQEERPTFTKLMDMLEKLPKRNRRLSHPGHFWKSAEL

p70S6Kb/RPS6KB2 = p70S6Kb/RPS6KB2 (Homo sapiens, UniProt Q9UBS0); conditions: 1 μM; Run 1, Run 2
Chain of p70S6Kb/RPS6KB2 (Q9UBS0 whole entry): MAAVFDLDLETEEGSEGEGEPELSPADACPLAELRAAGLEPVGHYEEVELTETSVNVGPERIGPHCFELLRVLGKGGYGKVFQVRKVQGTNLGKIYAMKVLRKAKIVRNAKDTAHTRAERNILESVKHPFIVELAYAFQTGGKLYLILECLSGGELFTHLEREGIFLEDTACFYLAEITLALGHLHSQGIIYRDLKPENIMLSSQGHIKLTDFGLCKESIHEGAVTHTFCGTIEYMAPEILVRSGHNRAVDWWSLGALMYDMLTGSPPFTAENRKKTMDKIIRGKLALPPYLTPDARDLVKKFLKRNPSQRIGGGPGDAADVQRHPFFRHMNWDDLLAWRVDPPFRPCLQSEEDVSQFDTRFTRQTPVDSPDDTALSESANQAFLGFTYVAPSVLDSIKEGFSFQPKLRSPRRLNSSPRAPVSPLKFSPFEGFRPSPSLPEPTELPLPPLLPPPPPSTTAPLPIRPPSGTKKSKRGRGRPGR

ULK1 = molecular target: T2, ULK1 (Homo sapiens, UniProt O75385); conditions: 1 μM; Run 1, Run 2
T2 sequence (O75385 1-1050): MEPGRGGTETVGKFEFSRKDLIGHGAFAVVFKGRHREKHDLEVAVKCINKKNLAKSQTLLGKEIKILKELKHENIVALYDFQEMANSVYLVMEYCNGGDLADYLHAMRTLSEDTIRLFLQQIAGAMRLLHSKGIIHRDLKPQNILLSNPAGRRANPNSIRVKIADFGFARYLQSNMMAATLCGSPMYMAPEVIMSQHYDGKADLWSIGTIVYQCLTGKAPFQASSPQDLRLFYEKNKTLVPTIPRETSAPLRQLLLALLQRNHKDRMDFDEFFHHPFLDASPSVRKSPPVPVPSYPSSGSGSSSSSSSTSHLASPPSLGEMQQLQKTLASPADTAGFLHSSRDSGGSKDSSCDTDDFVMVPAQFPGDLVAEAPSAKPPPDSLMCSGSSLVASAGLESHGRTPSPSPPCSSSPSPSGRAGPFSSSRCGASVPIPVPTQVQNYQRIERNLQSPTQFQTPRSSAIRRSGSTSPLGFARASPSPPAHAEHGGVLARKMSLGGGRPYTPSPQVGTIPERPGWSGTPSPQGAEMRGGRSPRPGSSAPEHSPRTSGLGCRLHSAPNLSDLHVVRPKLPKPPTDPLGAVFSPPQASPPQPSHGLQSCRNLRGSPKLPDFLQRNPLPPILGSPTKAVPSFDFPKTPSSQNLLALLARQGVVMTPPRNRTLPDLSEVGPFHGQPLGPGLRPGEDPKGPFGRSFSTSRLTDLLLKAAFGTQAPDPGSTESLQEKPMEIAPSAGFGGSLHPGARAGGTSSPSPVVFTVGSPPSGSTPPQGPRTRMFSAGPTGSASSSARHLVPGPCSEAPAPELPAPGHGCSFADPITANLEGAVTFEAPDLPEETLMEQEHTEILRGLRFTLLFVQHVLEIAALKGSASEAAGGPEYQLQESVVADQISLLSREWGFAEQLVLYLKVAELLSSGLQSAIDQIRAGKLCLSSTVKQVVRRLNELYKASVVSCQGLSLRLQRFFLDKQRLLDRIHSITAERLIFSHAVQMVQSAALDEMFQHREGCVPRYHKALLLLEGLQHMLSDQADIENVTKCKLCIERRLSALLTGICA

ABL1 = ABL1 (Homo sapiens, UniProt P00519); test: biochemical; conditions: read-out: % enzyme activity, 1 μM; Run 1, Run 2
Chain of ABL1 (P00519 whole entry): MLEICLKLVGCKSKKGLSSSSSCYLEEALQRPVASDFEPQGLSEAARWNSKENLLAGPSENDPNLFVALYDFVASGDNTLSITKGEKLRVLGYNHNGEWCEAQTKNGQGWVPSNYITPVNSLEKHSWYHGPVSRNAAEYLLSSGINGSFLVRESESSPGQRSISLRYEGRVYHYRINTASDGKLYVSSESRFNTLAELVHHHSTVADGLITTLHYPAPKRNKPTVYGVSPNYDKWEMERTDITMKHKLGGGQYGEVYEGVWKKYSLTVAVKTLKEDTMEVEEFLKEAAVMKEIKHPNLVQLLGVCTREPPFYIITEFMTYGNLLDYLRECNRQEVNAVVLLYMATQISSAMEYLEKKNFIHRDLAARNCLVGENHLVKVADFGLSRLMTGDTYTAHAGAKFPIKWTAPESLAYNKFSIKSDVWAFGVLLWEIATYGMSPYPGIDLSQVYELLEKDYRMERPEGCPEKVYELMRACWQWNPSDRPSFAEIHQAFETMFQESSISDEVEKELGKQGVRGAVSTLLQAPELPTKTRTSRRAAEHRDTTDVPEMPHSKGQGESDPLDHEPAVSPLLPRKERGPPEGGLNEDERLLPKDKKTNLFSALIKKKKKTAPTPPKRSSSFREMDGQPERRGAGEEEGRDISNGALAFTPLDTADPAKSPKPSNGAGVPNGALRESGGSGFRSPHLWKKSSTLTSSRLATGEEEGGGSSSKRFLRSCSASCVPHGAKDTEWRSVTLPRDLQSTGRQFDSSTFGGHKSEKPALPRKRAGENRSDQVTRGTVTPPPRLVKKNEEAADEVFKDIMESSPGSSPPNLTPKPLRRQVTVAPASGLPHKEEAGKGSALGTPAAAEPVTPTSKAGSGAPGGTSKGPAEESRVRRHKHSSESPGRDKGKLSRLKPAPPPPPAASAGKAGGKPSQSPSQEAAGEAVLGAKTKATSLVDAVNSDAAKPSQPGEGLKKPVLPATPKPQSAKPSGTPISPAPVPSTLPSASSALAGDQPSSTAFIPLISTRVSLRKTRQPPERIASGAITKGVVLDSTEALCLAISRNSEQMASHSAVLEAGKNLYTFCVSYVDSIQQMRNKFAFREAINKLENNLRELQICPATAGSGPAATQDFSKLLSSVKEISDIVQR

RSK2 = RSK2 (Homo sapiens, UniProt P51812); test: biochemical; conditions: read-out: % enzyme activity, 1 μM; Run 1, Run 2
Chain of RSK2 (P51812 whole entry): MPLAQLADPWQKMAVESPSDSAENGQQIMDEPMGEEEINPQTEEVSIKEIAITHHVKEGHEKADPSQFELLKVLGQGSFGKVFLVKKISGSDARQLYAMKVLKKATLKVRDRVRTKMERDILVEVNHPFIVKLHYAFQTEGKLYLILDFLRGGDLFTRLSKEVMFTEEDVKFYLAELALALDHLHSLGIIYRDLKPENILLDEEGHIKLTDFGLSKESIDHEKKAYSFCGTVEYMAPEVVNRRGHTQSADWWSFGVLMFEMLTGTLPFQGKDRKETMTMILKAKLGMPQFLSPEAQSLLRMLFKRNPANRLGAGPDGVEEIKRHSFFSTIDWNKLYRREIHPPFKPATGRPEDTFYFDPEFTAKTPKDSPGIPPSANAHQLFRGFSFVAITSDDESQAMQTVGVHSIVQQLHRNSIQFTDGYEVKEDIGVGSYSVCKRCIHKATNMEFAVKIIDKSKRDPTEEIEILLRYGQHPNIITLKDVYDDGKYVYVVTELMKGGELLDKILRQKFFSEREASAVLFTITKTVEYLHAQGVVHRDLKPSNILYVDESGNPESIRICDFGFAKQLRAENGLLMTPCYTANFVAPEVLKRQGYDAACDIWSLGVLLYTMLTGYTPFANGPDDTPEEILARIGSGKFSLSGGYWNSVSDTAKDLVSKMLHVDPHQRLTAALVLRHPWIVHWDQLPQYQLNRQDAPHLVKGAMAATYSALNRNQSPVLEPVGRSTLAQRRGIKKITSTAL

Chain of FGR (P09769 whole entry): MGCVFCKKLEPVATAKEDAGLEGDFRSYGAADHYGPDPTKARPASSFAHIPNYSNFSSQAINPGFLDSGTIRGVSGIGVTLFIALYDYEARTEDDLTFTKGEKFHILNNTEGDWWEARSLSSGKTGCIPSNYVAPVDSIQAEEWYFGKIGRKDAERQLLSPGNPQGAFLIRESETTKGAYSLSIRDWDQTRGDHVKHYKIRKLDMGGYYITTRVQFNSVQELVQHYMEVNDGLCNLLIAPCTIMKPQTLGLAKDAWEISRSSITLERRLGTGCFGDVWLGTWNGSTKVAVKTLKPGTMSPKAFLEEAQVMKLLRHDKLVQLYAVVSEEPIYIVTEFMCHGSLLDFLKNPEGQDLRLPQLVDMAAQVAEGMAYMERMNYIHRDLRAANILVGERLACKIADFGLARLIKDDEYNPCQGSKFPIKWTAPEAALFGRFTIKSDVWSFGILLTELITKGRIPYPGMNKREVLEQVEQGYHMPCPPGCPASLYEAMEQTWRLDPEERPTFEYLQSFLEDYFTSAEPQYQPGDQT
Chain of CLK2 (P49760 whole entry): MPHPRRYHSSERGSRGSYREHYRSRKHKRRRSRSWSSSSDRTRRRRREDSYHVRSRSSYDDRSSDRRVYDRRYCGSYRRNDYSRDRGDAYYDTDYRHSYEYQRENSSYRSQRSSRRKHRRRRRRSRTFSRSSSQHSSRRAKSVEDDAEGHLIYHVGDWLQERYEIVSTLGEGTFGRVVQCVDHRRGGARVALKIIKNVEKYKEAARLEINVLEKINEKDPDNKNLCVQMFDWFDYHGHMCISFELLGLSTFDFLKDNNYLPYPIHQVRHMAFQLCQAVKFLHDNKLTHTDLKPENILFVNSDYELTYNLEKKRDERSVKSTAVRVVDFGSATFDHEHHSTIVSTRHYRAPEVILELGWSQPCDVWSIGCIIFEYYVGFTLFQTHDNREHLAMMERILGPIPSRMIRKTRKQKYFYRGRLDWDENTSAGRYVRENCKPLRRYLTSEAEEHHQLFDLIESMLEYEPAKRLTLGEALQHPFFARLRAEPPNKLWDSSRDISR

SMILES | % enzyme activity (CLK2) | % enzyme activity (FGR) | % enzyme activity (KSR2) | % enzyme activity (p70S6Kb/RPS6KB2) | % enzyme activity (ULK1) | remaining activity at 1 µM (ABL1) | remaining activity at 1 µM (RSK2)
COc1cc(-c2cncc(-c3ccc(N4CCN(C)CC4)cc3)c2C)cc(F)c1C(N)=O [Compound 26a, 2-Fluoro-6-methoxy-4-(4-methyl-5-(4-(4-methylpiperazin-1-yl)phenyl)pyridin-3-yl)benzamide] | 91.71% | 74.69% | 93.25% | 97.21% | 83.53% | 75.2% | 101%
COc1cc(-c2cncc(-c3ccc(N4C[C@@H](C)N(C)[C@@H](C)C4)cc3)c2C)cc(F)c1C(N)=O [Compound 26c, 2-Fluoro-6-methoxy-4-(4-methyl-5-(4-((3R,5S)-3,4,5-trimethylpiperazin-1-yl)phenyl)pyridin-3-yl)benzamide] | 85.73% | 86.35% | 97.71% | 99.09% | 89.24% | 83.9% | 103%
